Holding throughout (assay type): functional
The subject of test [1] is Mus musculus. The experiment in a line: Analgesic activity in mouse assessed as pain threshold variation at 25 umol/kg, po after 120 mins (RVb = 0.69 +/- 1.98 %).
In test [2] the test system is Mus musculus. The experiment in a line: Analgesic activity in mouse assessed as pain threshold variation at 25 umol/kg, po after 30 mins (RVb = -1 +/- 2.8 %).
Test [3] concerns Mus musculus. The experiment in a line: Analgesic activity in mouse assessed as pain threshold variation at 25 umol/kg, po after 60 mins (RVb = -6.5 +/- 1.79 %).
The subject of test [4] is Mus musculus. Kind of test: Analgesic activity in mouse assessed as pain threshold variation at 25 umol/kg, po after 90 mins (RVb = 0.2 +/- 3.75 %).
Test [5] has as its system Mus musculus. Kind of test: Analgesic activity in mouse assessed as pain threshold variation at 25 umol/kg, po after 150 mins (RVb = 3.98 +/- 4.03 %).
In test [6] the test system is Mus musculus. The experiment in a line: Analgesic activity in mouse assessed as pain threshold variation at 25 umol/kg, po after 180 mins (RVb = -5.10 %).
Test [7] deals with Mus musculus. Kind of test: Analgesic activity in mouse assessed as pain threshold variation at 30 umol/kg, po after 30 mins (RVb = 0.13 +/- 0.14 %).
Test [8] has as its system Mus musculus. Kind of test: Analgesic activity in mouse assessed as pain threshold variation at 30 umol/kg, po after 60 mins (RVb = 0.15 +/- 0.16 %).
Test [9] relates to Mus musculus. The experiment in a line: Analgesic activity in mouse assessed as pain threshold variation at 30 umol/kg, po after 90 mins (RVb = 0.17 +/- 0.14 %).
For test [10], the system named is Mus musculus. The experiment in a line: Analgesic activity in mouse assessed as pain threshold variation at 30 umol/kg, po after 120 mins (RVb = 0.18 +/- 0.15 %).
Test [11] concerns Mus musculus. Kind of test: Analgesic activity in mouse assessed as pain threshold variation at 30 umol/kg, po after 150 mins (RVb = 0.16 +/- 0.13 %).
Test [12] relates to Mus musculus. Kind of test: Analgesic activity in mouse assessed as pain threshold variation at 30 umol/kg, po after 180 mins (RVb = 0.15 +/- 0.12 %).
Test [13] concerns Mus musculus. Kind of test: Analgesic activity in mouse assessed as pain threshold variation at 3 umol/kg, po after 30 mins (RVb = 0.13 +/- 0.14 %).
In test [14] the test system is Mus musculus. The experiment in a line: Analgesic activity in mouse assessed as pain threshold variation at 0.3 umol/kg, po after 30 mins (RVb = 0.13 +/- 0.14 %).
The subject of test [15] is Mus musculus. The experiment in a line: Analgesic activity in mouse assessed as pain threshold variation at 3 umol/kg, po after 60 mins (RVb = 0.15 +/- 0.16 %).
Test [16] concerns Mus musculus. The experiment in a line: Analgesic activity in mouse assessed as pain threshold variation at 0.3 umol/kg, po after 60 mins (RVb = 0.15 +/- 0.16 %).
Test [17] relates to Mus musculus. The experiment in a line: Analgesic activity in mouse assessed as pain threshold variation at 3 umol/kg, po after 90 mins (RVb = 0.17 +/- 0.14 %).
Test [18] deals with Mus musculus. The experiment in a line: Analgesic activity in mouse assessed as pain threshold variation at 0.3 umol/kg, po after 90 mins (RVb = 0.17 +/- 0.14 %).
Test [19] relates to Mus musculus. The experiment in a line: Analgesic activity in mouse assessed as pain threshold variation at 3 umol/kg, po after 120 mins (RVb = 0.18 +/- 0.15 %).
Test [20] deals with Mus musculus. The experiment in a line: Analgesic activity in mouse assessed as pain threshold variation at 0.3 umol/kg, po after 120 mins (RVb = 0.18 +/- 0.15 %).
In test [21] the test system is Mus musculus. Kind of test: Analgesic activity in mouse assessed as pain threshold variation at 3 umol/kg, po after 150 mins (RVb = 0.16 +/- 0.13 %).
For test [22], the system named is Mus musculus. The experiment in a line: Analgesic activity in mouse assessed as pain threshold variation at 0.3 umol/kg, po after 150 mins (RVb = 0.16 +/- 0.13 %).
For test [23], the system named is Mus musculus. The experiment in a line: Analgesic activity in mouse assessed as pain threshold variation at 3 umol/kg, po after 180 mins (RVb = 0.15 +/- 0.12 %).
For test [24], the system named is Mus musculus. Kind of test: Analgesic activity in mouse assessed as pain threshold variation at 0.3 umol/kg, po after 180 mins (RVb = 0.15 +/- 0.12 %).

Where a SMILES comes first, the peptide text is derived from it. The star is where a group is joined. OBn = c1ccc(CO*)cc1

`Clc1nc(NC2CC2)c2ncn(C3CCCCO3)c2n1` (stereo not drawn): the Activity worked out at 12.64% in test [1]; 10.27% in [2]; 20.63% in test [3]; 11.93% in [4]; 5.72% in test [5]; 5.92% in [6]. The Activity stood at 15.2% in test [7]; 25.61% in test [8]; 16.96% in [9]; 15.66% in test [10]; 10.78% in test [11]; 9.95% in test [12].

As to `N=C(N)NCCC[C@H](NC(=O)CN(c1nc(Cl)nc2c1ncn2C1CCCCO1)C1CC1)C(=O)OCc1ccccc1` (stereo partly drawn), the Activity in test [1] stood at 38.16%; in [2], 34.27%; in [3], 52.35%; in test [4], 61.58%; in test [5], 19.6%; in [6], 7.97%. The Activity was determined as 39.41% in test [7]; 20.55% in [13]; 12.15% in [14]; 57.51% in [8]; 41.07% in test [15]; 25.11% in test [16]. In addition, the Activity was found to be 66.71% in test [9]; 50.14% in test [17]; 32.88% in test [18]; 43.3% in test [10]; 29.09% in test [19]; 12.14% in [20]. The Activity in test [11] was 24.69%; in test [21] it was 15%; in test [22], 10.03%; in test [12] it was 14.01%; in [23] it was 10.34%; in test [24], 7.56%.

In the case of `Clc1nc(Cl)c2nc[nH]c2n1`, the Activity came out at 12.22% in test [7]; 21.62% in test [8]; 14.02% in test [9]; 12.97% in test [10]; 8.77% in test [11]; 7.99% in test [12].

`Clc1nc(Cl)c2ncn(C3CCCCO3)c2n1` (stereo not drawn): the Activity is 14.3% in test [7]; 23.99% in [8]; 15.01% in [9]; 14.13% in [10]; 9.89% in [11]; 8.03% in test [12].

Regarding `C[C@H](NC(=O)CN(c1nc(Cl)nc2c1ncn2C1CCCCO1)C1CC1)C(=O)OCc1ccccc1` (stereo partly drawn), the Activity in test [1] came to 25.3%; in test [2], 55.91%; in test [3], 53%; in test [4], 32.06%; in test [5], 6.01%; in test [6], 5.96%. The Activity in test [7] turned out to be 60.11%; in test [13], 43.25%; in test [14], 25.6%; in test [8], 58.18%; in test [15] it was 39.81%; in test [16], 21.56%. In addition, the Activity came out at 37.16% in test [9]; 25.34% in [17]; 11.43% in test [18]; 30.44% in test [10]; 18.03% in test [19]; 11.03% in test [20]. The Activity in test [11] was 11.2%; in [21], 12%; in [22] it was 10%; in [12] it was 11%; in test [23], 10%; in test [24] it was 8.09%.

Take `O=C(CN(c1nc(Cl)nc2c1ncn2C1CCCCO1)C1CC1)NCC(=O)OCc1ccccc1` (stereo not drawn): the Activity in test [1] stood at 17.23%; in test [2], 55.72%; in [3], 40.44%; in test [4] it was 25.94%; in test [5], 7.26%; in test [6], 0.06%. The Activity in test [7] was 60.84%; in [13] it was 45.27%; in test [14] it was 18%; in test [8] it was 45.52%; in test [15], 29.07%; in test [16], 16.24%. The Activity came out at 31.04% in [9]; 20.25% in [17]; 11.2% in test [18]; 22.31% in test [10]; 14.53% in [19]; 10.02% in test [20]. Further, the Activity in test [11] was 12.33%; in [21], 10.04%; in [22] it was 9.45%; in test [12] it was 10.16%; in [23], 9.2%; in test [24], 9%.

Take `C[C@H](NC(=O)CN)C(=O)OCc1ccccc1` (H-Gly-Ala-OBn): the Activity is on record as 12.25% in test [7]; 13.32% in [8]; 13.45% in test [9]; 13.57% in test [10]; 13% in test [11]; 12.99% in [12].

As to `NCC(=O)O` [GLYCINE], the Activity in test [7] is listed as 10.13%; in test [8] it was 11.21%; in test [9], 11.31%; in [10], 12.03%; in [11], 11.54%; in test [12] it was 10.96%.

The values are drawn from ChEMBL document CHEMBL1255208, “A class of novel conjugates of substituted purine and Gly-AA-OBzl: synthesis and evaluation of orally analgesic activity” (2010).
